The values that follow come from patent publication EP4273147A1, “SUBSTITUTED SPIROLACTAMS, SALTS THEREOF AND THEIR USE AS HERBICIDALLY ACTIVE SUBSTANCES” (Bayer Aktiengesellschaft, priority 2022, dated 2023).

Molecules are shown by their SMILES.

The test system of one data set is ABUTH. Briefly: Herbicidal pre-emergence action, section C (Table C1). To be noted: application rate 320 g/ha; visual grading after ca. 3 weeks. Format: in vivo, Abutilon theophrasti.
Another data set has as its system ALOMY. Briefly: Herbicidal pre-emergence action, section C (Table C2). The format is in vivo, Alopecurus myosuroides. Particulars: application rate 320 g/ha; visual grading after ca. 3 weeks.
The next data set deals with AMARE. Briefly: Herbicidal pre-emergence action, section C (Table C3). Format: in vivo, Amaranthus retroflexus. To be noted: application rate 320 g/ha; visual grading after ca. 3 weeks.
The subject of a further data set is DIGSA. Description: Herbicidal pre-emergence action, section C (Table C5). Format: in vivo, Digitaria sanguinalis. Particulars: application rate 320 g/ha; visual grading after ca. 3 weeks.
A further data set deals with MATIN. Briefly: Herbicidal pre-emergence action, section C (Table C8). Format: in vivo, Matricaria inodora. To be noted: application rate 320 g/ha; visual grading after ca. 3 weeks.
The test system of data set [1] is VERPE. Description: Herbicidal pre-emergence action, section C (Table C11). The format is in vivo, Veronica persica. To be noted: application rate 320 g/ha; visual grading after ca. 3 weeks.
Another data set concerns VIOTR. Briefly: Herbicidal pre-emergence action, section C (Table C12). Format: in vivo, Viola tricolor. Particulars: application rate 320 g/ha; visual grading after ca. 3 weeks.
The test system of data set [2] is ZEAMX. Briefly: Post-emergence effects on crop plants (Table F1). The format is in vivo, Zea mays. Particulars: application rate 320 g/ha, crop plant ZEAMX. The source says: (§1) 2 to 3 weeks after sowing, the test plants were sprayed in the single-leaf stage.
Data set [3] concerns TRZAS. Description: Post-emergence effects on crop plants (Table F2). The format is in vivo, Triticum aestivum. Particulars: application rate 320 g/ha, crop plant TRZAS.
Source text: as §1

The test system of a further data set is ORYZA. Briefly: Post-emergence effects on crop plants (Table F3). Format: in vivo, Oryza sativa. To be noted: application rate 320 g/ha, crop plant ORYZA.
Source text: as §1

Data set [4] relates to GLXMA. Description: Post-emergence effects on crop plants (Table F4). Format: in vivo, Glycine max. To be noted: application rate 320 g/ha, crop plant GLXMA.
Source text: as §1

Data set [5] has as its system BRSNW. Description: Post-emergence effects on crop plants (Table F5). Format: in vivo, Brassica napus. To be noted: application rate 320 g/ha, crop plant BRSNW.
Source text: as §1

Data set [6] concerns ECHCG. Briefly: Herbicidal pre-emergence action (Table A2). Format: in vivo, Echinochloa crus-galli. Particulars: application rate 320 g/ha; visual grading after ca. 3 weeks. In short, it runs like this:
(§2)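 For this pre-emergence setup, sandy loam pots received seeds of one monocot and one dicot weed species each. The seeds were then covered with soil.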

The next data set deals with LOLRI. Description: Herbicidal pre-emergence action (Table A3). Format: in vivo, Lolium rigidum. To be noted: application rate 320 g/ha; visual grading after ca. 3 weeks. In outline: as §2
In data set [7] the test system is SETVI. Briefly: Herbicidal pre-emergence action (Table A5). Format: in vivo, Setaria viridis. To be noted: application rate 1280 g/ha; visual grading after ca. 3 weeks. In short, it runs like this: as §2
In data set [8] the test system is ECHCG. Briefly: Herbicidal post-emergence action (Table B3). Format: in vivo, Echinochloa crus-galli. To be noted: application rate 1280 g/ha; rated visually after about 3 weeks. In short, it runs like this: (§3)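 Visual rating of activity versus untreated plants about 3 weeks after treatment: 0% means no difference from controls, 100% means complete kill. Test weeds were raised from seed in sandy loam under controlled greenhouse conditions and sprayed at the one-leaf stage.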

The next data set relates to POAAN. Briefly: Herbicidal post-emergence action (Table B7). The format is in vivo, Poa annua. Particulars: application rate 1280 g/ha. In short, it runs like this:
as §3

For data set [9], the system named is VERPE. Briefly: Herbicidal post-emergence action (Table B10). Format: in vivo, Veronica persica. To be noted: application rate 1280 g/ha. In outline:
as §3

Data set [10] relates to ECHCG. Description: Herbicidal pre-emergence action, section C (Table C6). Particulars: application rate 320 g/ha; visual grading after ca. 3 weeks. The format is in vivo, Echinochloa crus-galli.
In data set [11] the test system is SETVI. Description: Herbicidal pre-emergence action, section C (Table C10). To be noted: application rate 80 g/ha; visual grading after ca. 3 weeks. Format: in vivo, Setaria viridis.
The subject of data set [12] is ZEAMX. Description: Pre-emergence effects on crop plants (Table D1). Format: in vivo, Zea mays. To be noted: crop plant; application rate 80 g/ha; visual grading after ca. 3 weeks.
The subject of data set [13] is TRZAS. Description: Pre-emergence effects on crop plants (Table D2). To be noted: crop plant; application rate 80 g/ha; visual grading after ca. 3 weeks. Format: in vivo, Triticum aestivum.
Data set [14] concerns GLXMA. Briefly: Pre-emergence effects on crop plants (Table D4). The format is in vivo, Glycine max. To be noted: crop plant; application rate 80 g/ha; visual grading after ca. 3 weeks.
In data set [15] the test system is BRSNW. Briefly: Pre-emergence effects on crop plants (Table D5). The format is in vivo, Brassica napus. To be noted: crop plant; application rate 320 g/ha; visual grading after ca. 3 weeks.
In data set [16] the test system is ECHCG. Briefly: Herbicidal post-emergence action, section E (Table E5). The format is in vivo, Echinochloa crus-galli. To be noted: application rate 320 g/ha; assessed visually after ca. 3 weeks.
Source text: as §1

Source text for VIOTR: Seeds of mono- and dicotyledonous weed plants and crop plants were sown, in plastic or organic planting pots, in sandy loam and covered with soil. The compounds according to the invention, formulated in the form of wettable powders (WP) or as emulsifiable concentrates (EC), were applied to the surface of the covering soil as aqueous suspension or emulsion, with the addition of 0.5% of an additive, at an application rate of 600 1 of water/ha (converted). Following treatment, the pots were placed in a greenhouse and kept under optimum growth conditions for the test plants.

Regarding `O=C1N(Cc2c(F)cccc2F)CCCC12CCCN(Cc1c(F)cccc1F)C2=O` (single isomer, unassigned; (+)) [I-083, (+)-2,8-bis[(2,6-difluorophenyl)methyl]-2,8-diazaspiro[5.5]undecane-1,7-dione], in the data set on ABUTH, the “pre-emergence activity against ABUTH” value was 100%. The “pre-emergence activity against ALOMY” value in the data set with ALOMY came to 90%. The “pre-emergence activity against AMARE” value with AMARE amounted to 100%. In the data set on DIGSA, the “pre-emergence activity against DIGSA” value amounted to 90%. The “pre-emergence activity against MATIN” value in the data set with MATIN came to 100%. Also, the “pre-emergence activity against VERPE” value in the data set on VERPE [1] came to 100%. The “pre-emergence activity against VIOTR” value in the data set with VIOTR came to 100%. Moreover, the “post-emergence activity against ZEAMX” value in the data set with ZEAMX [2] came to 0%. The “post-emergence activity against TRZAS” value in the data set with TRZAS [3] worked out at 10%. Further, in the data set on ORYZA, the “post-emergence activity against ORYZA” value came out at 0%. For the same molecule, the “post-emergence activity against GLXMA” value in the data set with GLXMA [4] is 0%. Besides, the “post-emergence activity against BRSNW” value in the data set with BRSNW [5] worked out at 0%.
In the case of `O=C1N(Cc2ccccc2)CCCC12CCCN(Cc1ccccc1Cl)C2=O` (racemic) [I-066], the “pre-emergence activity against ECHCG” value with ECHCG [6] is given as 100%; in the data set with ECHCG [10] it was 80%. Moreover, in the data set with LOLRI, the “pre-emergence activity against LOLRI” value is given as 100%. Further, the “pre-emergence activity against SETVI” value in the data set with SETVI [7] and in the data set on SETVI [11] was 100% in each case. In addition, the “post-emergence activity against ECHCG” value with ECHCG [8] amounted to 90%; in the data set on ECHCG [16] it was 80%. Further, the “post-emergence activity against POAAN” value in the data set on POAAN worked out at 90%. Besides, the “post-emergence activity against VERPE” value in the data set on VERPE [9] is 90%. Also, in the data set with ALOMY, the “pre-emergence activity against ALOMY” value worked out at 90%. Further, the “pre-emergence activity against AMARE” value in the data set on AMARE stood at 90%. Further, the “pre-emergence activity against VIOTR” value with VIOTR is on record as 80%. The “pre-emergence activity against ZEAMX” value in the data set with ZEAMX [12] amounted to 10%. For the same molecule, in the data set with TRZAS [13], the “pre-emergence activity against TRZAS” value was 0%. Besides, in the data set with GLXMA [14], the “pre-emergence activity against GLXMA” value came to 0%. In addition, the “pre-emergence activity against BRSNW” value in the data set with BRSNW [15] came to 0%. Also, in the data set on ZEAMX [2], the “post-emergence activity against ZEAMX” value was found to be 0%. For the same molecule, in the data set on TRZAS [3], the “post-emergence activity against TRZAS” value is recorded as 0%. For the same molecule, the “post-emergence activity against ORYZA” value in the data set on ORYZA was determined as 0%. Besides, the “post-emergence activity against BRSNW” value in the data set with BRSNW [5] came out at 0%.
